Experimental data taken from US10933093B2, “Compositions and methods of treating a T cell mediated disorder” (CASE WESTERN RESERVE UNIVERSITY, priority 2009, dated 2021).

B1: C5a: Murine C5a from Cell Sciences, Inc (protein, UniProt P06684 679-755, looked up)
C5a anaphylatoxin: NLHLLRQKIEEQAAKYKHSVPKKCCYDGARVNFYETCEERVARVTIGPLCIRAFNECCTIANKIRKESPHKPVQLGR
modifications: C5a anaphylatoxin
notes: Murine C5a from Cell Sciences, Inc

How the values were obtained:
[1] = system: C3aR/C5aR expression; test: C3aR and C5aR surface expression by flow cytometry; type: cell-based, C57BL/6 mice; settings: 3 days
Protocol: (§1) FIGS. 3(A-I) illustrate graphs showing: A) 1×10^6 CD62L^hiCD25^−CD4^+ cells from WT or C3aR^−/−C5aR^−/− mice were incubated with anti-CD3/CD28 Dynabead activation beads, 5 ng/ml rhIL-2, and 1×10^5 CD11c^+ WT DCs for 3 days. The CD4^+ cell and DC partners were sorted, after which the DCs were assayed for B7 family members (*P<0.01; **P<0.03; ***P=0.07) and the CD4^+ cells were assayed for B7 coinhibitory counter-receptors by flow. B) 1×10^6 CD62L^hiCD25^−CD4^+ cells from WT mice were incubated with anti-CD3/CD28 Dynabead activation beads, 5 ng/ml rhIL-2, and 1×10^5 CD11c^+ WT DCs for 3 days±10 nM C3aR-A/C5aR-A or ±5 ng/ml rhTGF-fβ1. The CD4^+ cell and DC partners were sorted, after which the cells were assayed as in (A; *P<0.01 C3aR-A/C5aR-A vs. TGF-β1). C) 1×10^6 CD62L^hiCD25^− CD4^+ cells from WT or C3aR^−/−C5aR^−/− were incubated with anti-CD3/CD28 Dynabead activation beads, 5 ng/ml rhIL-2, and 1×10^5 CD11c^+ WT DCs for 3 days in the presence of blocking anti-CTLA-4, anti-PD-1, or anti-ICOS-L Abs and percent FoxP3^+ cells assayed by flow cytometry. […] I) C57BL/6 CD4^+ T cells were incubated for 1 hr with anti-CD3/CD28±100 ng/ml C5a and FoxP3 mRNA was quantitated by qPCR. […]

[2] = system: DC-CD4^+ cell C3a/C5a production; test: C3a/C5a generation by ELISA; type: cell-based, C57BL/6 mice; settings: 3 days
Protocol: as §1, with “TGF-β1).” for “TGF-β1). C) 1×10^6 CD62L^hiCD25^− CD4^+ cells from WT or C3aR^−/−C5aR^−/− were incubated with anti-CD3/CD28 Dynabead activation beads, 5 ng/ml rhIL-2, and 1×10^5 CD11c^+ WT DCs for 3 days in the presence of blocking anti-CTLA-4, anti-PD-1, or anti-ICOS-L Abs and percent FoxP3^+ cells assayed by flow cytometry.”
For C5a, C3a, IL-2, IL-10, and IL-6, capture and biotinylated detection Ab pairs were purchased from BD Biosciences. […] Reactions were terminated using 1N H2SO4 and plates were read using a SpectraMax M2 fluorimeter. • Induction and Evaluation of EAE

[3] = system: anti-CD3/CD28 stimulated CD4^+ cells; test: qPCR of complement and FoxP3 mRNA in anti-CD3/CD28 stimulated CD4+ cells; type: cell-based, C57BL/6 mice; settings: for FoxP3 mRNA transcription: anti-CD3/28 stimulated naive CD4+ cells, C5a 100 ng/ml, 1 hr; for transcription of complement genes (complement mRNA): qPCR
Protocol: FIGS. 3(A-I) illustrate graphs showing: A) 1×10^6 CD62L^hiCD25^−CD4^+ cells from WT or C3aR^−/−C5aR^−/− mice were incubated with anti-CD3/CD28 Dynabead activation beads, 5 ng/ml rhIL-2, and 1×10^5 CD11c^+ WT DCs for 3 days. The CD4^+ cell and DC partners were sorted, after which the DCs were assayed for B7 family members (*P<0.01; **P<0.03; ***P=0.07) and the CD4^+ cells were assayed for B7 coinhibitory counter-receptors by flow. B) 1×10^6 CD62L^hiCD25^−CD4^+ cells from WT mice were incubated with anti-CD3/CD28 Dynabead activation beads, 5 ng/ml rhIL-2, and 1×10^5 CD11c^+ WT DCs for 3 days±10 nM C3aR-A/C5aR-A or ±5 ng/ml rhTGF-fβ1. The CD4^+ cell and DC partners were sorted, after which the cells were assayed as in (A; *P<0.01 C3aR-A/C5aR-A vs. TGF-β1). C) 1×10^6 CD62L^hiCD25^− CD4^+ cells from WT or C3aR^−/−C5aR^−/− were incubated with anti-CD3/CD28 Dynabead activation beads, 5 ng/ml rhIL-2, and 1×10^5 CD11c^+ WT DCs for 3 days in the presence of blocking anti-CTLA-4, anti-PD-1, or anti-ICOS-L Abs and percent FoxP3^+ cells assayed by flow cytometry. D) 1×10^6 CD62L^hiCD25^− CD4^+ cells from WT, ICOS^−/−, or PD-1^−/− were incubated with anti-CD3/CD28 Dynabead activation beads, 5 ng/ml rhIL-2, and […] CD11c^+ WT or PD-L1^−/− DCs for 3 days in the presence of blocking anti-CTLA-4, anti-PD-1, or anti-ICOS-L Abs and percent FoxP3^+ cells assayed by flow cytometry. E) Anti-CD3/CD28 stimulated CD4^+ cells were treated with TGF-β1 or buffer and complement mRNA transcripts were assayed by qPCR. F-H) 1×10^4 CD62L^hiCD25^− CD4^+ cells from C57BL/6 mice were incubated with anti-CD3/CD28 Dynabeads and 5 ng/ml rhIL-2 for 3 days in the presence of TGF-β, TGF-β+IL-6, or IL-6 after which cells were assayed for (F) C3 mRNA expression by qPCR, (G) C3 and C5a generation by ELSIA, and (H) C3aR and C5aR surface expression by flow cytometry. I) C57BL/6 CD4^+ T cells were incubated for 1 hr with anti-CD3/CD28±100 ng/ml C5a and FoxP3 mRNA was quantitated by qPCR.
For C3aR/C5aR signaling to be absent, local complement production by interacting DCs and CD4^+ cells must not occur or be suppressed. […] As a first test of this, we incubated anti-CD3/CD28 stimulated CD4^+ cells in the presence and absence of TGF-β1. […] To test how IL-6 affects CD4^+ cell complement production, we added IL-6 to naive CD4^+ cells. […]
[…] for 5 min at 20° C. using Trizol (Invitrogen, Carlsbad, Calif.) according to the manufacturer. When C3aR and C5aR mRNAs were analyzed, preparations were treated with DNase I (standard protocol) to remove genomic DNA. cDNAs were synthesized by incubating 20 μl of mRNAs in Sprint PowerScript Single Shots (Clontech, Mountain View, Calif.). […]

[4] = system: human CD45RA^+CD25^−CD4^+ cells; test: Human iTreg preparation and human Treg suppression assay; type: cell-based
Protocol: FIGS. 5(A-G) illustrate graphs showing, A-C) EAE was induced in FoxP3-GFP knockin mice and 10 days after disease onset, CD4 cells were isolated from spleens and lymph nodes and sorted on GFP. 4×10^6 GFP negative cells were adoptively transferred into Rag2^−/− mice. The mice were subsequently injected with 1×10^6 FoxP3-GFP positive cells or PBS after which A) weight change, B) clinical scores, and C) percent FoxP3^+ cells were assayed. D-E) EAE was induced in WT and C3aR^−/−C5aR^−/− mice and at day 12 post disease induction draining LN cells were harvested and assayed for D) % FoxP3^+ cells, and E) suppressive capacity as above. F) EAE was induced in FoxP3-GFP knockin mice and 10 days after induction mice were treated with buffer control, C3aR-A/C5aR-A, or ex vivo generated FoxP3^+ Tregs (from FoxP3-GFP mice with C3aR-A/C5aR-A), after which […]) clinical scores were assessed. G) CD25^+ cells from 1×10^6 CD25^−CD4^+ Human T cells isolated by flow cytometry and incubated with soluble anti-CD3, IL-2, and autologous DCs in the presence and absence of TGF-β, C3aR-A/C5aR-A, or anti-C3a/C5a mAbs for 3 days were incubated with CFSE labeled autologous naive T cells, anti-CD3, and autologous DCs and percent dividers determined 3 days thereafter by CFSE dilution. […]

[5] = system: naive CD4^+ cells; test: FoxP3+ iTreg induction from naive CD4+ cells stimulated with anti-CD3, IL-2 and DCs (flow cytometry); type: cell-based, mice
[6] = system: iTregs; test: Costimulatory molecule expression of iTregs by flow cytometry; type: cell-based, mice; settings: higher
Protocol: as §1

[7] = system: CellTracker Red-labeled OT-II cells; test: Murine Treg suppression assay; type: cell-based, mice; settings: cells from stimulated naive C3−/−C5−/− CD4+ cells, C5a added

Molecule	C3aR/C5aR expression [1]	DC-CD4+ cell C3a/C5a production [2]	FoxP3 mRNA transcription [3]	transcription of complement genes (complement mRNA) [3]	costimulatory molecules on human iTregs (phenotyping) ([4]; human iTregs)	suppression by CD25+ (FoxP3+) cells of CFSE-labeled CD25−CD4+ cells ([4]; human, equal number of sorted CD25+ cells, DCs, anti-CD3, same individual)	FoxP3+ cell induction ([5]; anti-CD3/CD28 stimulated CD4+ cells, added TGF-β1)	costimulatory molecule expression of iTregs generated with exogenous TGF-β1 relative to those generated by C3aR/C5aR antagonism [6]	iTreg induction ([5]; naive C3−/−C5−/− CD4+ cells stimulated with anti-CD3, DCs and IL-2, C5a added)	suppressor function [7]
IL-6: cytokine IL-6 added to naive CD4+ cells	upregulated	evoked	inhibited	upregulated	–	–	–	–	–	–
TGF-β1: human TGF-β1 from Prospec Bio	did neither	did neither	–	abolished	showed costimulatory molecules	little effect	induced FoxP3^+ cells	3-6 fold	–	–
B1	–	–	inhibited	–	–	–	–	–	blocked	blocked
